Experiments:
[1] = test system: SA1N fibrosarcoma; assay: SA1N fibrosarcoma tumor model, subcutaneous, established tumors; assay type: in vivo, mice; details: for T − C: target size 500 mm^3; for % TGI: IP every 4 days x3, ixabepilone 8 mg/kg, CTLA-4 mAb 20 mg/kg
Description: Antibody UC10 (hamster IgG anti-mouse CTLA-4) was produced and purified by BMS (Protein Therapeutics Division, Hopewell, N.J., USA). […] Stock solutions of anti-CTLA-4 were kept at −80° C. and were thawed out at 4° C. prior to use. Control antibody consisted of a polyclonal hamster IgG (Jackson ImmunoResearch, West Grove, Pa.). Dosing solutions of Anti-CTLA-4 and hamster IgG control were prepared weekly in sterile phosphate buffered saline (pH 7.0).
Eight to twelve week-old female BALB/c, A/J or C57/BL6 mice were purchased from Harlan, Indianapolis, Ind. Mice received food and water ad libitum, and were maintained in a controlled environment according to AALAC regulations.
(§1) Tumor cell lines were maintained in vitro. Treatments were initiated when the subcutaneous tumors reached a median size between 100-200 mm^3 (established model) or prior to detection (initiation model). Tumors were measured twice weekly and tumor size (mm^3) was calculated as […]. Body weights were obtained weekly. The tumor models used in these studies are outlined in Table 1.
(§2) The dose levels, routes and dosing schedules are indicated for each particular study described below. Antibodies and chemotherapeutic agents were administered intraperitoneally (i.p.). Each treatment regimen consisted of a cohort of eight to ten mice. Anti-tumor activity, defined as percentage tumor growth inhibition, was calculated as follows: % Tumor Growth Inhibition=100−[(Tt/To)/(Ct/Co)]/100−(Ct/Co) where,
Tt=median tumor size of treated group at the end of treatment
To=median tumor size of treated group at treatment initiation
Ct=median tumor size of control group at the end of treatment
Co=median tumor size at treatment initiation
(§3) In addition, another parameter used to define efficacy was to determine time to tumor progression to target size (T-C), where the time (days) for the median tumor size of control (C) mice to reach target size was subtracted to the time for median tumor size of treated (T) mice to reach target size.
Nonparametric analysis using the Wilcoxon test was used to determine statistical significance.
SA1N fibrosarcoma is an inherently immunogenic tumor line which is sensitive to the effects of CTLA-4 blockade. […] Animals were implanted with SA1N cells subcutaneously and treatments were initiated when tumors reached 100-150 mm^3. Experimental groups consisted of cohorts of 8 mice. […] In the combination groups, CTLA-4 mab was administered one day after each chemotherapy treatment.

[2] = test system: EMT-6 mammary carcinoma; assay: EMT-6 mammary carcinoma tumor model; assay type: in vivo, mice; details: Study 27; for T − C: IP, treatment from day 3/4, ixabepilone 8 mg/kg, paclitaxel 24 mg/kg, CTLA-4 mAb 20 mg/kg
Description: as §1, §2, §3

[3] = test system: M109 lung carcinoma; assay: M109 lung carcinoma tumor model, initial tumor implantation; assay type: in vivo, mice; details: for antitumor effect in M109: Study 40, text and FIG. 1
Description: as §1, §2
In these studies treatments with chemotherapeutic agents were initiated when tumors were palpable, on day 3 after tumor implantation. […] As in the studies conducted in the SA1N and EMT-6 tumor lines, CTLA-4 mAb was dosed one day after treatment with chemotherapy.

[4] = test system: CT26 colon carcinoma; assay: CT26 colon carcinoma tumor model; assay type: in vivo, mice; details: for antitumor effect in CT26: footnotes and FIG. 2
Description: as §1
as §2, with “where, […]” for “where,”

[5] = test system: paclitaxel-sensitive (A2780, HCT116 and LS174T) and paclitaxel-resistant human colon tumors (HCT116NM46), ovarian carcinoma (Pat-7 and A2780Tax) and breast …; assay: Preclinical pharmacology studies of Compound 1 in tumor models; assay type: in vivo
[6] = test system: SA1N fibrosarcoma, M109 lung carcinoma, EMT-6 mammary carcinoma, CT-26 colon carcinoma and B16 melanoma; assay: Efficacy studies of CTLA-4 mAb with ixabepilone or paclitaxel across murine tumor models (summary statements); assay type: in vivo, mice; details: animals with complete regressions rechallenged with a lethal dose of tumor cells
Description: as §1, §2, §3

[7] = test system: M109 lung carcinoma; assay: M109 rechallenge of tumor-free mice with a lethal M109 cell inoculum; assay type: in vivo; details: tumor-free mice by day 97 rechallenged; 5 ixabepilone mice, 8 combination mice
Description: To determine whether the combination of CTLA-4+ixabepilone produced a memory immune response able to reject a secondary tumor challenge, animals free of tumors by day 97 were re-challenge with a lethal M109 cell inoculum. For this part of the study, M109 cells were injected into: a) 10 naïve mice (to control for tumor growth); and in study mice free of tumors: b) 5 mice previously treated with ixabepilone and c) 8 mice previously treated with ixabepilone+CTLA-4 mAb. All control mice developed progressive tumors with a median tumor size of 1000 mm^3 10 days later whereas 4 out of 5 mice in the Ixabepilone-treated mice developed tumors (80%).

[8] = Study 17, study terminated day 116

Compound | T − C ([1]; Study 11, study terminated day 52) [days] | T − C [1, 8] [days] | antitumor effect in SA1N ([1]; two independent studies) | antitumor effect of single agent in EMT-6 [2] | T − C [2] [days] | antitumor effect in M109 [3] | antitumor effect in CT26 [4] | oral efficacy ([5]; oral vs parenteral administration) | antitumor activity ([5]; paclitaxel-sensitive and paclitaxel-resistant tumor models) | protection against subsequent tumor rechallenge [6] | % TGI ([1]; Study 9, calculated Day 36 (last measurement for control group)) [%] | T − C ([1]; Study 9, study terminated day 39) [days] | % TGI ([1]; Study 17, calculated Day 33, paclitaxel 24 mg/kg) [%] | % Tumor-free Mice [2] [%] | % Tumor-Free Mice after Initial Tumor Implantation ([3]; Study 40, footnote: percentage of animals that develop tumors following implantation on Day 0, chemotherapy from day 3, IP) [%] | mice that developed tumors after M109 rechallenge [7] | % Complete Regressions/Total # mice ([4]; IP every 4 days x3, CTLA-4 mAb 20 mg/kg days 5, 9, 13, chemotherapy days 4, 8, 12)
5beta,20-Epoxy-1,2alpha,4,7beta,10beta,13alpha-hexahydroxytax-11-en-9-one 4,10-diacetate 2-benzoate 13-ester with (2R,3S)—N-benzoyl-3-phenylisoserine [Paclitaxel] | 13 | 0 | variable effect | ineffective | 0 | did not produce antitumor effects | neither paclitaxel or ixabepilone produced any measurable antitumor activity | – | – | – | – | – | – | – | – | – | –
C/C(=C\c1csc(C)n1)[C@@H]1C[C@@H]2O[C@]2(C)CCC[C@H](C)[C@H](O)[C@@H](C)C(=O)C(C)(C)[C@@H](O)CC(=O)N1 (relative stereo) [Compound 1, [1S-[1R*,3R*(E),7R*,10S*,11R*,12R*,16S*]]-7,11-dihydroxy-8,8,10,12,16-pentamethyl-3-[1-methyl-2-(2-methyl-4-thiazolyl)ethenyl]-4-aza-17-oxabicyclo[14.1.0]heptadecane-5,9-dione] | – | – | – | – | – | – | – | orally efficacious | very impressive and broad spectrum of antitumor activity | – | – | – | – | – | – | – | –
C/C(=C\c1csc(C)n1)[C@@H]1C[C@@H]2O[C@]2(C)CCC[C@H](C)[C@H](O)[C@@H](C)C(=O)C(C)(C)[C@@H](O)CC(=O)N1 [Ixabepilone, (1S,3S,7S,10R,11S,12S,16R)-7,11-dihydroxy-8,8,10,12,16-pentamethyl-3-[(1E)-1-methyl-2-(2-methyl-4-thiazolyl)ethenyl]-17-oxa-4-azabicyclo[14.1.0]heptadecane-5,9-dione] | – | 7 | – | – | 19 | very effective | neither paclitaxel or ixabepilone produced any measurable antitumor activity | – | – | only partial protection | 92 | 11 | 83 | 20 | 50 | 4 out of 5 | 0/10

From patent US8449886B2, “Combination of anti-CTLA4 antibody with tubulin modulating agents for the treatment of proliferative diseases” (Bristol-Myers Squibb Company, priority 2008, dated 2013)
